Here are results for eleven molecules from patent US9944666B2, “Compounds that are S1P modulating agents and/or ATX modulating agents” (BIOGEN MA INC., priority 2012, dated 2018).

Structures are written as SMILES. Some results are limits rather than exact numbers.

For this assay, the target named is T1, Human ATX protein (Homo sapiens, UniProt Q13822).
T1 construct: made in house
The assay is described as follows: ATX biochemical FRET assay with FS-3 substrate. The settings on record: FS-3 2 μM, ATX 1.0 μg/mL, room temperature 2 hours, fluorescence 485/538 nm. In outline: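 Purified human ATX (1.0 μg/mL final) preincubated with compound 30 min at room temperature in Tris pH 7.4 buffer with NaCl, KCl, CaCl2, MgCl2 and 1 mg/mL fatty acid-free BSA. FS-3 added to 2 μM final; 2 h at room temperature in the dark, fluorescence at ex 485/em 538 nm.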
Turning to `O=C(O)C1CC2CCCC(C1)N2Cc1ccc2c(C(F)(F)F)c(O[C@H]3CC[C@@H](C(F)(F)F)CC3)ccc2c1` (stereo partly drawn) [Example 84, 9-((5-(trifluoromethyl)-6-((cis-4-(trifluoromethyl)cyclohexyl)oxy)naphthalen-2-yl)methyl)-9-azabicyclo[3.3.1]nonane-3-carboxylic acid], the IC50 is ≤ 0.1 µM.
For `O=C(O)C1CC(NCc2ccc3c(C(F)(F)F)c(O[C@H]4CC[C@@H](C(F)(F)F)CC4)ccc3c2)C12CCCCC2` (stereo partly drawn) [Example 85, 3-(((5-(trifluoromethyl)-6-((cis-4-(trifluoromethyl)cyclohexyl)oxy)naphthalene-2-yl)methyl)amino)spiro[3.5]nonane-1-carboxylic acid], the IC50 is ≤ 0.5 µM.
Next, `CC(c1ccc2c(C(F)(F)F)c(O[C@H]3CC[C@@H](C(F)(F)F)CC3)ccc2c1)N1C2CCCC1CC(C(=O)O)C2` (some centres unmarked) [Example 88]: ≤ 0.1 µM; `CC(c1ccc2c(C(F)(F)F)c(O[C@H]3CC[C@@H](C)CC3)ccc2c1)N1C2CCCC1CC(C(=O)O)C2` (stereo partly drawn) [Example 93, 9-(1-(6-((cis-4-Methylcyclohexyl)oxy)-5-(trifluoromethyl)naphthalen-2-yl)ethyl)-9-azabicyclo[3.3.1]nonane-3-carboxylic acid]: ≤ 0.1 µM.
Next, `C[C@H]1CC[C@@H](Oc2ccc3cc(CN4C5CCC4CC(C(=O)O)C5)ccc3c2C(F)(F)F)CC1` (stereo partly drawn) [Example 96, 8-((6-((cis-4-Methylcyclohexyl)oxy)-5-(trifluoromethyl)naphthalen-2-yl)methyl)-8-azabicyclo[3.2.1]octane-3-carboxylic acid]: ≤ 0.5 µM; `C[C@H]1CC[C@@H](Oc2ccc3cc(CN4C5CCCC4CC(C(=O)O)C5)ccc3c2C(F)(F)F)CC1` (stereo partly drawn) [Example 97, 9-((6-((cis-4-Methylcyclohexyl)oxy)-5-(trifluoromethyl)naphthalen-2-yl)methyl)-9-azabicyclo[3.3.1]nonane-3-carboxylic acid]: ≤ 0.1 µM.
As for `CCC(c1ccc2c(C(F)F)c(O[C@H]3CC[C@@H](C)CC3)ccc2c1)N1C2CCC1CC(C(=O)O)C2` (stereo partly drawn) [Example 99, 8-(1-(5-(difluoromethyl)-6-((cis-4-methylcyclohexyl)oxy)naphthalen-2-yl)propyl)-8-azabicyclo[3.2.1]octane-3-carboxylic acid], the IC50 is ≤ 0.1 µM.
In the case of `O=C(O)C1CC2CCCC(C1)N2Cc1ccc2c(C(F)F)c(O[C@H]3CC[C@@H](C(F)(F)F)CC3)ccc2c1` (stereo partly drawn) [Example 100, 9-((5-(difluoromethyl)-6-((cis-4-(trifluoromethyl)cyclohexyl)oxy)naphthalene-2-yl)methyl)-9-azabicyclo[3.3.1]nonane-3-carboxylic acid], the IC50 is ≤ 0.1 µM.
For the molecule `O=C(O)C1CC2CCCC(C1)N2Cc1ccc2c(C(F)(F)F)c(O[C@H]3CC[C@@H](C(F)(F)F)CC3)ccc2n1` (stereo partly drawn) [Example 101, 9-((5-(trifluoromethyl)-6-((cis-4-(trifluoromethyl)cyclohexyl)oxy)quinolin-2-yl)methyl)-9-azabicyclo[3.3.1]nonane-3-carboxylic acid], the IC50 was ≤ 0.1 µM.
Next, `CC(c1ccc2c(C(F)(F)F)c(O[C@H]3CC[C@@H](C(F)(F)F)CC3)ccc2n1)N1C2CCC1CC(C(=O)O)C2` (stereo partly drawn) [Example 102, 8-(1-(5-(trifluoromethyl)-6-((cis-4-(trifluoromethyl)cyclohexyl)oxy)quinolin-2-yl)ethyl)-8-azabicyclo[3.2.1]octane-3-carboxylic acid]: ≤ 0.1 µM; `C[C@H]1CC[C@@H](Oc2ccc3cc(C(=O)N4C5CCC4CC(C(=O)O)C5)ccc3c2C(F)(F)F)CC1` (stereo partly drawn) [Example 104, 8-(6-((cis-4-Methylcyclohexyl)oxy)-5-(trifluoromethyl)-2-naphthoyl)-8-azabicyclo[3.2.1]octane-3-carboxylic acid]: ≤ 0.1 µM.

Broadly, the IC50 is the midpoint of a concentration-inhibition curve. A low value points to greater potency.
